We go through 1 compound from US6046219A, “Method for the treatment of conditions mediated by collagen formation together with cell proliferation by application of inhibitors of protein hydroxylation” (Cornell Research Foundation, Inc., priority 1997, dated 2000).

The structures appear in SMILES notation.

The target in the test is T1, prolyl 4-hydroxylase in human coronary smooth muscle cells (SMC) (Homo sapiens, UniProt P13674).
T1 construct: 3H-proline to 3H-hydroxyproline conversion
The experiment in a line: Assay of cellular human prolyl 4-hydroxylase in lesion-derived SMC (3H-proline labeling). The test is classed as cell-based. To be noted: upon removal of the inhibitor. The protocol: Those SMC, immunocytochemically identified by reactivity to contractile α-actinas shown in FIGS. 4b and 4c were pretreated with inhibitor for 30 minutes prior to routine metabolic labeling with tritiated proline ("^3 H-Pro") for 24 hours, followed by standard hydrolysis and separation of amino acids from both supernatant and cells. The degree of inhibition of scar collagen formation was determined by measuring formation of tritiated hydroxyproline ("^3 H-Hyp").
Human coronary artery smooth muscle cells ("SMC") were isolated from specimens collected immediately after directional rotary atherectomy (Simpson AtheroCath, DVI, Inc., Redwood City, Calif.). […] To verify the SMC phenotype of the cultures, cells were plated onto LabTek 8-chamber slides and stained by indirect immunofluorescence for the SMC marker contractile α-actin, using a mouse monoclonal antibody specific for the contractile smooth muscle α-actin (clone No. IA4; Sigma) which was detected with FITC- or peroxidase-labeled […] (Sigma). […] Results were photodocumented with a Nikon Labophot 2 fluorescence microscope. […]

T1 sequence (P13674 18-534): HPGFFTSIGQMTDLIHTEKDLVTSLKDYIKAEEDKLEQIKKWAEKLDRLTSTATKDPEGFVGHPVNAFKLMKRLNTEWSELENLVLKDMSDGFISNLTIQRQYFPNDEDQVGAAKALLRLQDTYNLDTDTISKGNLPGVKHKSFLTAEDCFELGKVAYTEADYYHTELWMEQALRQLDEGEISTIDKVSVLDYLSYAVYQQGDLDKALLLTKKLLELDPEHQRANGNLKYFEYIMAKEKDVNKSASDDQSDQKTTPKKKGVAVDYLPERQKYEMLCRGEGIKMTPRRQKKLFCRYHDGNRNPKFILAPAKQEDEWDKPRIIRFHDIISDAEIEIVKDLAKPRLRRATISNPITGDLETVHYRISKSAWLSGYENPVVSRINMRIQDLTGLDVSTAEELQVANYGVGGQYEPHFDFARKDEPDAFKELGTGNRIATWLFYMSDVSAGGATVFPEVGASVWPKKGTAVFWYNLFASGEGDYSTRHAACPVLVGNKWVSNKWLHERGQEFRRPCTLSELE
T1 sequence (P07237 18-508 partner): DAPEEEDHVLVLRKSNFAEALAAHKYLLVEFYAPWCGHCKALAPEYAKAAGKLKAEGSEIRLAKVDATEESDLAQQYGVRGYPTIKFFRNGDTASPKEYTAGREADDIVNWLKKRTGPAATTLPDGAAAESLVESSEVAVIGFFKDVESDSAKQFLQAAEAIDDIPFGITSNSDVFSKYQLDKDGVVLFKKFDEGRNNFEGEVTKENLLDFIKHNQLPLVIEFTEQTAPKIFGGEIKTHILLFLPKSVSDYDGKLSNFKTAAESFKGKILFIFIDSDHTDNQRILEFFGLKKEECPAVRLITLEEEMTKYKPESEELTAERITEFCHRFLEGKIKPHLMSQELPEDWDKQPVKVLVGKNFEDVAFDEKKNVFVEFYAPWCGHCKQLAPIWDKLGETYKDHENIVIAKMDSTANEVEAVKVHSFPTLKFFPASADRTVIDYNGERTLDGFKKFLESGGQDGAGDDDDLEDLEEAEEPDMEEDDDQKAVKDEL

Consider `N[C@@H](Cn1ccc(=O)c(O)c1)C(=O)O` [L-Mimosine], for which the “reversibility of suppression of cellular prolyl hydroxylase activity” value was “rapidly reversible”.
